Data reported in patent US20080274892A1, “Novel Haloalkylsulfonanilide Derivative, Herbicide, and Method of Use Thereof” (priority 2005, published 2008).

Columns and labels:
[1] = tested on: bulrush; assay: Test Example 1: herbicidal efficacy on rice paddy weeds pre-emergence; type: in vivo, Scirpus juncoides; settings: 21 days
[2] = tested on: false pimpernel; assay: as above; type: in vivo, Lindernia pyxidaria; settings: 21 days
[3] = tested on: barnyard glass; assay: Test Example 2: herbicidal efficacy on rice paddy weeds post-emergence; type: in vivo, Echinochloa crus-galli; settings: post-emergence, one leaf stage, 21 days after treatment
Excerpt: The standard of judgment for herbicidal efficacy (degree of growth inhibition) and phytotoxicity 4 . . . 90%-100% of herbicidal efficacy or phytotoxicity 3 . . . 70%-89% of herbicidal efficacy or phytotoxicity 2 . . . 40%-69% of herbicidal efficacy or phytotoxicity 1 . . . 1%-39% of herbicidal efficacy or phytotoxicity 0 . . . 0% of herbicidal efficacy or phytotoxicity
A 75 cm^2 plastic pot was filled with soil (clay loam) and planted seeds of barnyard glass and bulrush which is a rice paddy weed. After covering the top with 75 cm^3 soil mixed with seeds of false pimpernel, the pot was filled with water so that the soil submerged under 5 cm depth of water and kept in a hot house. […] The pot was kept in a hot house for 21 days after the treatment and the herbicidal efficacy was investigated and evaluated according to the standard in Test Example 1 by comparing with the untreated control. “-” in the table represents test not done.

[4] = tested on: bulrush; assay: as above; type: in vivo, Scirpus juncoides; settings: post-emergence, one leaf stage, 21 days after treatment
[5] = tested on: false pimpernel; assay: as above; type: in vivo, Lindernia pyxidaria; settings: post-emergence, one leaf stage, 21 days after treatment
[6] = tested on: paddy rice plant (cultivar: Nihonbare); assay: Test Example 3: phytotoxicity test for transplanted paddy rice plant; type: in vivo; settings: transplanted rice, 21 days after treatment
Method in brief: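 Clay loam soil was placed in a 75 cm^2 plastic pot and flooded to a water depth of 5 cm. Two Nihonbare paddy rice plants at the two-leaf stage were transplanted 1 cm deep and grown in a hot house. After treatment, pots stayed in the hot house for 21 days, and phytotoxicity was then graded against an untreated control.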

[7] = dosage 1000 g/ha, treated 5 days after transplantation

Compound	Bulrush pre (herbicidal efficacy grade) ([1]; dosage 300 g/ha)	False pimpernel pre (herbicidal efficacy grade) ([2]; dosage 300 g/ha)	Burnyard grass post (herbicidal efficacy grade) ([3]; dosage 300 g/ha)	Bulrush post (herbicidal efficacy grade) ([4]; dosage 300 g/ha)	False pimpernel post (herbicidal efficacy grade) ([5]; dosage 300 g/ha)	Phytotoxicity to paddy rice ([6]; dosage 300 g/ha)	Bulrush pre (herbicidal efficacy grade) ([1]; dosage 1000 g/ha)	False pimpernel pre (herbicidal efficacy grade) ([2]; dosage 1000 g/ha)	Burnyard grass post (herbicidal efficacy grade) ([3]; dosage 1000 g/ha)	Bulrush post (herbicidal efficacy grade) ([4]; dosage 1000 g/ha)	False pimpernel post (herbicidal efficacy grade) ([5]; dosage 1000 g/ha)	Phytotoxicity to paddy rice [6, 7]
CCCC1COC(=O)N1Cc1ccccc1NS(=O)(=O)C(F)(F)F (stereo not drawn) [Compound 1-7]	4 (90%-100% of herbicidal efficacy or phytotoxicity)	4 (90%-100% of herbicidal efficacy or phytotoxicity)	1 (1%-39% of herbicidal efficacy or phytotoxicity)	4 (90%-100% of herbicidal efficacy or phytotoxicity)	2 (40%-69% of herbicidal efficacy or phytotoxicity)	1 (1%-39% of herbicidal efficacy or phytotoxicity)						
CCCC1COC(=O)N1Cc1ccccc1N(C(=O)OCC(C)C)S(=O)(=O)C(F)(F)F (stereo not drawn) [Compound 1-8]	4 (90%-100% of herbicidal efficacy or phytotoxicity)	4 (90%-100% of herbicidal efficacy or phytotoxicity)	4 (90%-100% of herbicidal efficacy or phytotoxicity)	4 (90%-100% of herbicidal efficacy or phytotoxicity)	2 (40%-69% of herbicidal efficacy or phytotoxicity)	0 (0% of herbicidal efficacy or phytotoxicity)						
CC(C)C1COC(=O)N1Cc1ccccc1NS(=O)(=O)C(F)(F)F (stereo not drawn) [Compound 1-9]	4 (90%-100% of herbicidal efficacy or phytotoxicity)	4 (90%-100% of herbicidal efficacy or phytotoxicity)	4 (90%-100% of herbicidal efficacy or phytotoxicity)	4 (90%-100% of herbicidal efficacy or phytotoxicity)	2 (40%-69% of herbicidal efficacy or phytotoxicity)	2 (40%-69% of herbicidal efficacy or phytotoxicity)						
CC(C)COC(=O)N(c1ccccc1CN1C(=O)OCC1C(C)C)S(=O)(=O)C(F)(F)F (stereo not drawn) [Compound 1-10]							4 (90%-100% of herbicidal efficacy or phytotoxicity)	4 (90%-100% of herbicidal efficacy or phytotoxicity)	4 (90%-100% of herbicidal efficacy or phytotoxicity)	4 (90%-100% of herbicidal efficacy or phytotoxicity)	4 (90%-100% of herbicidal efficacy or phytotoxicity)	1 (1%-39% of herbicidal efficacy or phytotoxicity)
CCCCC1COC(=O)N1Cc1ccccc1NS(=O)(=O)C(F)(F)F (stereo not drawn) [Compound 1-11]	4 (90%-100% of herbicidal efficacy or phytotoxicity)	2 (40%-69% of herbicidal efficacy or phytotoxicity)	0 (0% of herbicidal efficacy or phytotoxicity)	3 (70%-89% of herbicidal efficacy or phytotoxicity)	1 (1%-39% of herbicidal efficacy or phytotoxicity)	0 (0% of herbicidal efficacy or phytotoxicity)						
CCCCC1COC(=O)N1Cc1ccccc1N(C(=O)OCC(C)C)S(=O)(=O)C(F)(F)F (stereo not drawn) [Compound 1-12]	4 (90%-100% of herbicidal efficacy or phytotoxicity)	2 (40%-69% of herbicidal efficacy or phytotoxicity)	2 (40%-69% of herbicidal efficacy or phytotoxicity)	4 (90%-100% of herbicidal efficacy or phytotoxicity)	2 (40%-69% of herbicidal efficacy or phytotoxicity)	0 (0% of herbicidal efficacy or phytotoxicity)						
O=C1OC(C(F)(F)F)CN1Cc1ccccc1NS(=O)(=O)C(F)(F)F (stereo not drawn) [Compound 1-19]	4 (90%-100% of herbicidal efficacy or phytotoxicity)	3 (70%-89% of herbicidal efficacy or phytotoxicity)	2 (40%-69% of herbicidal efficacy or phytotoxicity)	4 (90%-100% of herbicidal efficacy or phytotoxicity)	2 (40%-69% of herbicidal efficacy or phytotoxicity)	0 (0% of herbicidal efficacy or phytotoxicity)						
CC(C)COC(=O)N(c1ccccc1CN1CC(C(F)(F)F)OC1=O)S(=O)(=O)C(F)(F)F (stereo not drawn) [Compound 1-20]	4 (90%-100% of herbicidal efficacy or phytotoxicity)	3 (70%-89% of herbicidal efficacy or phytotoxicity)	4 (90%-100% of herbicidal efficacy or phytotoxicity)	4 (90%-100% of herbicidal efficacy or phytotoxicity)	3 (70%-89% of herbicidal efficacy or phytotoxicity)	0 (0% of herbicidal efficacy or phytotoxicity)						
CCCC1CN(Cc2ccccc2NS(=O)(=O)C(F)(F)F)C(=O)O1 (stereo not drawn) [Compound 1-29]							4 (90%-100% of herbicidal efficacy or phytotoxicity)	4 (90%-100% of herbicidal efficacy or phytotoxicity)	4 (90%-100% of herbicidal efficacy or phytotoxicity)	4 (90%-100% of herbicidal efficacy or phytotoxicity)	4 (90%-100% of herbicidal efficacy or phytotoxicity)	2 (40%-69% of herbicidal efficacy or phytotoxicity)
CCCC1CN(Cc2ccccc2N(C(=O)OCC(C)C)S(=O)(=O)C(F)(F)F)C(=O)O1 (stereo not drawn) [Compound 1-30]							4 (90%-100% of herbicidal efficacy or phytotoxicity)	4 (90%-100% of herbicidal efficacy or phytotoxicity)	4 (90%-100% of herbicidal efficacy or phytotoxicity)	4 (90%-100% of herbicidal efficacy or phytotoxicity)	4 (90%-100% of herbicidal efficacy or phytotoxicity)	0 (0% of herbicidal efficacy or phytotoxicity)
CC(C)(C)C1CN(Cc2ccccc2NS(=O)(=O)C(F)(F)F)C(=O)O1 (stereo not drawn) [Compound 1-33]							4 (90%-100% of herbicidal efficacy or phytotoxicity)	4 (90%-100% of herbicidal efficacy or phytotoxicity)	4 (90%-100% of herbicidal efficacy or phytotoxicity)	4 (90%-100% of herbicidal efficacy or phytotoxicity)	4 (90%-100% of herbicidal efficacy or phytotoxicity)	2 (40%-69% of herbicidal efficacy or phytotoxicity)
CC(C)COC(=O)N(c1ccccc1CN1CC(C(C)(C)C)OC1=O)S(=O)(=O)C(F)(F)F (stereo not drawn) [Compound 1-34]							4 (90%-100% of herbicidal efficacy or phytotoxicity)	4 (90%-100% of herbicidal efficacy or phytotoxicity)	4 (90%-100% of herbicidal efficacy or phytotoxicity)	4 (90%-100% of herbicidal efficacy or phytotoxicity)	4 (90%-100% of herbicidal efficacy or phytotoxicity)	1 (1%-39% of herbicidal efficacy or phytotoxicity)
COCC1CN(Cc2ccccc2N(C(=O)OCC(C)C)S(=O)(=O)C(F)(F)F)C(=O)O1 (stereo not drawn) [Compound 1-36]							4 (90%-100% of herbicidal efficacy or phytotoxicity)	4 (90%-100% of herbicidal efficacy or phytotoxicity)	4 (90%-100% of herbicidal efficacy or phytotoxicity)	4 (90%-100% of herbicidal efficacy or phytotoxicity)	4 (90%-100% of herbicidal efficacy or phytotoxicity)	1 (1%-39% of herbicidal efficacy or phytotoxicity)
